Values quoted from earlier work, collected in patent US20160213656A1, “H[…] FORM” (Sovereign Pharmaceuticals, LLC, priority 2004, published 2016).

## CN1[C@@H]2CC[C@H]1C[C@@H](OC(=O)[C@H](CO)c1ccccc1)C2 [hyoscyamine]
Once absorbed, blood
  time for which therapeutic levels are maintained: approximately 3.5 hours
urine, unchanged drug
  time within which the majority of hyoscyamine is excreted in the urine unchanged: ≤ 12 h
